Key:
[1] = Lipid hydroperoxide (LOOH) formation in cholesterol-enriched model membranes under autoxidation (Example 3); format: biochemical; details: EPA:lipids 1:30; C/P 0.6:1; autoxidation 37° C., 72 hours
Experimental: Levels of lipid hydroperoxides were also measured in cholesterol-enriched membrane prepared in the absence of EPA as a control. […] CHOD-iodide color reagent (stock) was prepared according to a procedure modified from El-Saadani et […], Goher […], Jurgens G. A spectrophotometric assay for lipid peroxides in serum lipoproteins using commercially available reagent. (J. Lipid. […] Membrane samples consisting of DLPC±cholesterol were prepared as follows. Component lipids (in chloroform) were transferred to 13×100 mm test tubes and shell-dried under a steady stream of nitrogen gas while vortex mixing. The lipid was co-dried with EPA. Residual solvent was removed by drying for a minimum of 3 h under vacuum. After desiccation, each membrane sample was resuspended in diffraction buffer (0.5 mM HEPES, 154 mM NaCl, pH 7.3) to yield a final phospholipid concentration of 1.0 mg/mL. Multilamellar vesicles (MLV) were formed by vortex mixing for 3 minutes at ambient temperature. […] Absorbances were measured against a CHOD blank at 365 nm using a Beckman DU-640 spectrophotometer. The CHOD colorimetric assay is based on the oxidation of iodide (I^-) by lipid hydroperoxides (LOOH) and proceeds according to the following reaction scheme: The quantity of triiodide anion (I3^-) liberated in this reaction is directly proportional to the amount of lipid hydroperoxides present in the membrane sample.

human sdLDL = assay: Copper-induced sdLDL oxidation (Example 12); format: biochemical; details: 10.0 μM; copper-induced oxidation 1 hour
Experimental: (§1) All samples, with the exception of non-oxidized sdLDL controls, were subjected to copper-induced oxidation for 1 hour. Human umbilical vein endothelial cells (HUVECs) were incubated with the various sdLDL samples, stimulated with calcium, and monitored for nitric oxide (NO) and peroxynitrite (ONOO^−) release using nanosensor technology.

HUVECs = assay: NO release from HUVECs incubated with treated, oxidized sdLDL (Example 12); format: cell-based, human; details: sdLDL treated at 10.0 μM
Experimental: as §1

[2] = LOOH formation in membrane vesicles, fatty acid comparison (Example 16); format: biochemical; details: 5 μM
Experimental: Iodometric approaches were used to measure in vitro LOOH formation in membrane vesicles reconstituted as binary mixtures of cholesterol and dilinoleoyl phosphatidylcholine. Vesicles were prepared at a cholesterol-to-phospholipid mole ratio of 0.6:1 and subjected to autoxidation (e.g., lipid oxidation) at 37° C. Lipid oxidation was stimulated with 0.1 μM copper sulfate for 48 hours. All FAs were delivered at 5 and 10 μM.

SMILES: CC/C=C\C/C=C\C/C=C\C/C=C\C/C=C\CCCC(=O)O [EPA, cis-5,8,11,14,17-eicosapentaenoic acid]
- LOOH levels [1]: 728 ± 30 µM
- reduction of LOOH levels compared to untreated controls [1]: greater than 90%
- reduction of sdLDL oxidation compared to vehicle (human sdLDL): > 90%
- increase of NO release compared to non-oxidized sdLDL (HUVECs): 23%
- increase of NO release compared to oxidized LDL (HUVECs): 53%
- activity of EPA greater than ALA by [2]: 213%
- activity of EPA greater than DHA by [2]: 279%
- activity of EPA greater than DPA by [2]: 121%
- activity of EPA greater than ETE by [2]: 174%
- reduction of LOOH levels compared to the vehicle ([2]; 0.1 μM copper sulfate, 48 hours): 77%

Reference: US20190209506A1, “METHODS OF REDUCING OR PREVENTING OXIDATION OF LDL OR LIPID MEMBRANES IN A SUBJECT IN NEED THEREOF” (Amarin Pharmaceuticals Ireland Limited, priority 2018, published 2019)
